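Cultured in 96-well plates, cells were exposed to test compound for 48 hours across five concentrations. At the GI50, growth is halved. TGI: concentration producing complete growth inhibition.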
Experiments:
Test in all cases: NCI-60 cell line screen, 48 h
HCC-2998 colon = tested on: HCC-2998 colon
UO-31 renal = tested on: UO-31 renal
UACC-257 melanoma = tested on: UACC-257 melanoma
OVCAR-5 ovarian = tested on: OVCAR-5 ovarian
SK-MEL-28 melanoma = tested on: SK-MEL-28 melanoma
NCI-H460 lung = tested on: NCI-H460 lung
NCI-H522 lung = tested on: NCI-H522 lung
HCT-116 colon = tested on: HCT-116 colon
MALME-3M melanoma = tested on: MALME-3M melanoma
NCI/ADR-RES ovarian = tested on: NCI/ADR-RES ovarian
SR leukemia = tested on: SR leukemia
SK-OV-3 ovarian = tested on: SK-OV-3 ovarian
NCI-H23 lung = tested on: NCI-H23 lung
CAKI-1 renal = tested on: CAKI-1 renal
K-562 leukemia = tested on: K-562 leukemia
SW-620 colon = tested on: SW-620 colon
HT29 colon = tested on: HT29 colon
M14 melanoma = tested on: M14 melanoma
SF-539 CNS = tested on: SF-539 CNS
COLO 205 colon = tested on: COLO 205 colon
SNB-19 CNS = tested on: SNB-19 CNS
MCF7 breast = tested on: MCF7 breast
SF-268 CNS = tested on: SF-268 CNS
SNB-75 CNS = tested on: SNB-75 CNS
MOLT-4 leukemia = tested on: MOLT-4 leukemia
TK-10 renal = tested on: TK-10 renal
OVCAR-3 ovarian = tested on: OVCAR-3 ovarian
HOP-62 NSCLC = tested on: HOP-62 NSCLC
MDA-MB-231 breast = tested on: MDA-MB-231 breast
SN12C renal = tested on: SN12C renal
HS 578T breast = tested on: HS 578T breast
BT-549 breast = tested on: BT-549 breast
U251 CNS = tested on: U251 CNS
SK-MEL-2 melanoma = tested on: SK-MEL-2 melanoma
LOX IMVI melanoma = tested on: LOX IMVI melanoma
MDA-MB-435 = tested on: MDA-MB-435
EKVX NSCLC = tested on: EKVX NSCLC
SK-MEL-5 melanoma = tested on: SK-MEL-5 melanoma
NCI-H226 lung = tested on: NCI-H226 lung
RPMI-8226 leukemia = tested on: RPMI-8226 leukemia
UACC-62 melanoma = tested on: UACC-62 melanoma
KM12 colon = tested on: KM12 colon
786-0 renal = tested on: 786-0 renal
OVCAR-8 ovarian = tested on: OVCAR-8 ovarian
A549 NSCLC = tested on: A549 NSCLC
SF-295 CNS = tested on: SF-295 CNS
PC-3 prostate = tested on: PC-3 prostate
A498 renal = tested on: A498 renal
RXF 393 renal = tested on: RXF 393 renal
CCRF-CEM leukemia = tested on: CCRF-CEM leukemia
HL-60(TB) leukemia = tested on: HL-60(TB) leukemia

Q: COc1cc2c(c(OC)c1OC)-c1c(c3ccc([N+](=O)[O-])cc3c(=O)n1CCCBr)C2=O was tested. Which GI50 (HCC-2998 colon) did it give?
A: 50.4 µM

Q: What about the TGI (HCC-2998 colon) of the same compound?
A: > 100 µM

Q: And the GI50 (UO-31 renal)?
A: 14.4 µM

Q: And the TGI (UO-31 renal)?
A: 72.5 µM

Q: What about the GI50 (UACC-257 melanoma) of the same compound?
A: > 100 µM

Q: What about the TGI (UACC-257 melanoma) of the same compound?
A: > 100 µM

Q: And the GI50 (OVCAR-5 ovarian)?
A: > 100 µM

Q: And the TGI (OVCAR-5 ovarian)?
A: > 100 µM

Q: And the GI50 (SK-MEL-28 melanoma)?
A: > 100 µM

Q: What about the TGI (SK-MEL-28 melanoma) of the same compound?
A: > 100 µM

Q: What about the GI50 (NCI-H460 lung) of the same compound?
A: 8.53 µM

Q: What about the TGI (NCI-H460 lung) of the same compound?
A: > 100 µM

Q: What about the GI50 (NCI-H522 lung) of the same compound?
A: 17 µM

Q: What about the TGI (NCI-H522 lung) of the same compound?
A: > 100 µM

Q: What about the GI50 (HCT-116 colon) of the same compound?
A: 18.7 µM

Q: What about the TGI (HCT-116 colon) of the same compound?
A: > 100 µM

Q: And the GI50 (MALME-3M melanoma)?
A: 11.4 µM

Q: And the TGI (MALME-3M melanoma)?
A: 47.6 µM

Q: And the GI50 (NCI/ADR-RES ovarian)?
A: 70.6 µM

Q: What about the TGI (NCI/ADR-RES ovarian) of the same compound?
A: > 100 µM

Q: What about the GI50 (SR leukemia) of the same compound?
A: 4.37 µM

Q: And the TGI (SR leukemia)?
A: > 100 µM

Q: What about the GI50 (SK-OV-3 ovarian) of the same compound?
A: > 100 µM

Q: And the TGI (SK-OV-3 ovarian)?
A: > 100 µM

Q: What about the GI50 (NCI-H23 lung) of the same compound?
A: 68.9 µM

Q: What about the TGI (NCI-H23 lung) of the same compound?
A: > 100 µM

Q: And the GI50 (CAKI-1 renal)?
A: 13.4 µM

Q: And the TGI (CAKI-1 renal)?
A: 61.3 µM

Q: What about the GI50 (K-562 leukemia) of the same compound?
A: 38.8 µM

Q: What about the TGI (K-562 leukemia) of the same compound?
A: > 100 µM

Q: And the GI50 (SW-620 colon)?
A: 18.2 µM

Q: What about the TGI (SW-620 colon) of the same compound?
A: > 100 µM

Q: What about the GI50 (HT29 colon) of the same compound?
A: > 100 µM

Q: What about the TGI (HT29 colon) of the same compound?
A: > 100 µM

Q: And the GI50 (M14 melanoma)?
A: 21 µM

Q: And the TGI (M14 melanoma)?
A: 59.1 µM

Q: What about the GI50 (SF-539 CNS) of the same compound?
A: 4.5 µM

Q: What about the TGI (SF-539 CNS) of the same compound?
A: 17.9 µM

Q: And the GI50 (COLO 205 colon)?
A: > 100 µM

Q: What about the TGI (COLO 205 colon) of the same compound?
A: > 100 µM

Q: And the GI50 (SNB-19 CNS)?
A: 57.4 µM

Q: And the TGI (SNB-19 CNS)?
A: > 100 µM

Q: And the GI50 (MCF7 breast)?
A: 0.0551 µM

Q: And the TGI (MCF7 breast)?
A: 0.439 µM

Q: And the GI50 (SF-268 CNS)?
A: 4.83 µM

Q: What about the TGI (SF-268 CNS) of the same compound?
A: 45.8 µM

Q: And the GI50 (SNB-75 CNS)?
A: 80 µM

Q: And the TGI (SNB-75 CNS)?
A: > 100 µM

Q: What about the GI50 (MOLT-4 leukemia) of the same compound?
A: 15.2 µM

Q: And the TGI (MOLT-4 leukemia)?
A: > 100 µM

Q: And the GI50 (TK-10 renal)?
A: 23.5 µM

Q: What about the TGI (TK-10 renal) of the same compound?
A: 90.2 µM

Q: And the GI50 (OVCAR-3 ovarian)?
A: > 100 µM

Q: What about the TGI (OVCAR-3 ovarian) of the same compound?
A: > 100 µM

Q: And the GI50 (HOP-62 NSCLC)?
A: 15.8 µM

Q: What about the TGI (HOP-62 NSCLC) of the same compound?
A: 54.3 µM

Q: And the GI50 (MDA-MB-231 breast)?
A: 31.3 µM

Q: And the TGI (MDA-MB-231 breast)?
A: > 100 µM

Q: And the GI50 (SN12C renal)?
A: 19.7 µM

Q: And the TGI (SN12C renal)?
A: > 100 µM

Q: What about the GI50 (HS 578T breast) of the same compound?
A: 67.9 µM

Q: And the TGI (HS 578T breast)?
A: > 100 µM

Q: What about the GI50 (BT-549 breast) of the same compound?
A: 35.8 µM

Q: What about the TGI (BT-549 breast) of the same compound?
A: 97.5 µM

Q: And the GI50 (U251 CNS)?
A: 24.4 µM

Q: And the TGI (U251 CNS)?
A: > 100 µM

Q: And the GI50 (SK-MEL-2 melanoma)?
A: > 100 µM

Q: What about the TGI (SK-MEL-2 melanoma) of the same compound?
A: > 100 µM

Q: And the GI50 (LOX IMVI melanoma)?
A: 31.9 µM

Q: And the TGI (LOX IMVI melanoma)?
A: > 100 µM

Q: And the GI50 (MDA-MB-435)?
A: > 100 µM

Q: What about the TGI (MDA-MB-435) of the same compound?
A: > 100 µM

Q: What about the GI50 (EKVX NSCLC) of the same compound?
A: > 100 µM

Q: And the TGI (EKVX NSCLC)?
A: > 100 µM

Q: What about the GI50 (SK-MEL-5 melanoma) of the same compound?
A: 19.8 µM

Q: And the TGI (SK-MEL-5 melanoma)?
A: 65.8 µM

Q: What about the GI50 (NCI-H226 lung) of the same compound?
A: 13.5 µM

Q: And the TGI (NCI-H226 lung)?
A: 68.5 µM

Q: What about the GI50 (RPMI-8226 leukemia) of the same compound?
A: 35 µM

Q: And the TGI (RPMI-8226 leukemia)?
A: > 100 µM

Q: What about the GI50 (UACC-62 melanoma) of the same compound?
A: 23.8 µM

Q: And the TGI (UACC-62 melanoma)?
A: 90.1 µM

Q: What about the GI50 (KM12 colon) of the same compound?
A: 60.7 µM

Q: What about the TGI (KM12 colon) of the same compound?
A: > 100 µM

Q: And the GI50 (786-0 renal)?
A: 35.1 µM

Q: What about the TGI (786-0 renal) of the same compound?
A: > 100 µM

Q: And the GI50 (OVCAR-8 ovarian)?
A: 49.8 µM

Q: And the TGI (OVCAR-8 ovarian)?
A: > 100 µM

Q: What about the GI50 (A549 NSCLC) of the same compound?
A: 62.8 µM

Q: What about the TGI (A549 NSCLC) of the same compound?
A: > 100 µM

Q: And the GI50 (SF-295 CNS)?
A: 24.2 µM

Q: What about the TGI (SF-295 CNS) of the same compound?
A: > 100 µM

Q: And the GI50 (PC-3 prostate)?
A: 26.3 µM

Q: What about the TGI (PC-3 prostate) of the same compound?
A: > 100 µM

Q: And the GI50 (A498 renal)?
A: > 100 µM

Q: What about the TGI (A498 renal) of the same compound?
A: > 100 µM

Q: What about the GI50 (RXF 393 renal) of the same compound?
A: 24.4 µM

Q: What about the TGI (RXF 393 renal) of the same compound?
A: > 100 µM

Q: What about the GI50 (CCRF-CEM leukemia) of the same compound?
A: 14.8 µM

Q: What about the TGI (CCRF-CEM leukemia) of the same compound?
A: > 100 µM

Q: Which TGI (HL-60(TB) leukemia) does the source give for Oc1c(Cl)c(Cl)c(Cl)c(Cl)c1Cl here?
A: 36.9 µM

Q: And the TGI (NCI-H226 lung)?
A: 56.9 µM

Q: And the TGI (CCRF-CEM leukemia)?
A: 48.3 µM

Source: PubChem BioAssay (NCI)
